Reference: ChEMBL document CHEMBL1201862, “PubChem BioAssay data set” (2004)
Calls of active or inactive are those of the source.

Key:
[1] = cells
[2] = Trypanosoma cruzi growth suppression in host cells – NIH3T3 host cells, beta-gal luminescence, confirmation (AID 2044); type: functional, cell-based;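 also: intracellular parasites grown in NIH/3T3 mouse fibroblasts as host cells; luminescent beta-galactosidase reporter signal from transgenic T. cruzi replicating inside host cells; inhibitors lower the luminescence signal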
[3] = molecular target: Beta-galactosidase (Escherichia coli, UniProt Q8VNN2); assay: detection-enzyme interference by beta-gal modulators – biochemical, E. coli enzyme, set 3, artefact control for CCR6 antagonist project, dose response (AID 504712); type: functional
Beta-galactosidase, sequence (Q8VNN2 whole entry): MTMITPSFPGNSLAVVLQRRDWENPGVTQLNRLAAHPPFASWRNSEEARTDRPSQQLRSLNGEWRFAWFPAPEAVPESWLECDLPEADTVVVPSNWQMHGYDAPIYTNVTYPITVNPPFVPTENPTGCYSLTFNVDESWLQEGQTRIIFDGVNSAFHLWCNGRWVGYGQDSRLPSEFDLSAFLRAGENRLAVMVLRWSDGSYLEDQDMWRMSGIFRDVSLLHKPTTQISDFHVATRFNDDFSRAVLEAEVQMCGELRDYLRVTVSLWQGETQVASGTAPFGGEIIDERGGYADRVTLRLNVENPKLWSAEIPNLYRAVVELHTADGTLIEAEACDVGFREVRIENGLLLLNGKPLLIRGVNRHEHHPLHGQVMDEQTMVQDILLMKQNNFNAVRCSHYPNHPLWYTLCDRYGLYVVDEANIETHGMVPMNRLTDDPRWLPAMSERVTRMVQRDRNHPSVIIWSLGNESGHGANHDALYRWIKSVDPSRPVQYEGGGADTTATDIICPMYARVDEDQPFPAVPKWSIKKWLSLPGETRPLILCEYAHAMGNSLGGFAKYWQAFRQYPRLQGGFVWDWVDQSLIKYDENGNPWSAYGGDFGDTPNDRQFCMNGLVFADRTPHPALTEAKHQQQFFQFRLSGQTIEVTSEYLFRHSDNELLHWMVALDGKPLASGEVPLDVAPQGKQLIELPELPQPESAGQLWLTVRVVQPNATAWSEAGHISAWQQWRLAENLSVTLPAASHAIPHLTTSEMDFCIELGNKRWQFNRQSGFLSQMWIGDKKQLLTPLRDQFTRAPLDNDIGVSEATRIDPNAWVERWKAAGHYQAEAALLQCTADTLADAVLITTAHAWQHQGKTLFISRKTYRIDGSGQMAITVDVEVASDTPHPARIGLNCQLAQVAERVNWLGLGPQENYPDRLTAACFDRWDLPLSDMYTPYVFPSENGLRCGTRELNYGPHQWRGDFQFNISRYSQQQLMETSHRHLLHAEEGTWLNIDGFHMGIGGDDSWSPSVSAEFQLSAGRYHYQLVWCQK

[4] = NIH3T3 cell viability loss – ATP luminescence, mouse fibroblasts, counter-screen, dose response (AID 2010); type: functional, cell-based;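 also: cells exposed to compound for about 90 hours before reading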
[5] = molecular target: Disintegrin and metalloproteinase domain-containing protein 17 (Homo sapiens, UniProt P78536); assay: exosite inhibitors of ADAM17, dose response, biochemical (AID 743260)
Disintegrin and metalloproteinase domain-containing protein 17, sequence (P78536 whole entry, the tested form may be a part): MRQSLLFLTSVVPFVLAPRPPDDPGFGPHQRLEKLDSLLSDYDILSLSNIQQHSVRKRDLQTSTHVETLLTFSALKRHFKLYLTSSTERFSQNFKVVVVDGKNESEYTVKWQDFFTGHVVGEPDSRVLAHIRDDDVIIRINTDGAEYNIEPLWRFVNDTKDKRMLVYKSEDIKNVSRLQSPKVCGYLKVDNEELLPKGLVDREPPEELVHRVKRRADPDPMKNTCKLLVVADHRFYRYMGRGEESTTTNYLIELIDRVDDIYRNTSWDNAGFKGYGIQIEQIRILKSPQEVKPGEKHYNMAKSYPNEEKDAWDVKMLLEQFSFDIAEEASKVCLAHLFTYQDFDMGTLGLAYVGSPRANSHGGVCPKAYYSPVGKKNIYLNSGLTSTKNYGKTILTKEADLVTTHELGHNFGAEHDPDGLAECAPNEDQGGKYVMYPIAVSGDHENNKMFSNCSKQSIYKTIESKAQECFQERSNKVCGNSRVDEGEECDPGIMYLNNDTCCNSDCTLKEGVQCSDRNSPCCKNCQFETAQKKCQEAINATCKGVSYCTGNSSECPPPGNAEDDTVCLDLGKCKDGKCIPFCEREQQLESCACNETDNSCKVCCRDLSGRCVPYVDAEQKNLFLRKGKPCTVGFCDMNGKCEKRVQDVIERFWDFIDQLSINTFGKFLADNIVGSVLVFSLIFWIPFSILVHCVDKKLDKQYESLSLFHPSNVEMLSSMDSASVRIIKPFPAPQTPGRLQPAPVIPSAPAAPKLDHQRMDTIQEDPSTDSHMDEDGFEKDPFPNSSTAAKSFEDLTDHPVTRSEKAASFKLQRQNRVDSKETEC

[6] = inhibition of ADAM10 peptide cleavage – biochemical, FRET peptide substrate, recombinant human ADAM10, selectivity assay for ADAM17 exosite inhibitor project, dose response (AID 743259);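 also: ADAM10 enzyme cleaving a FRET peptide substrate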
[7] = molecular target: T1, Caspase-6 (Homo sapiens, UniProt P55212); assay: inhibition of CASP6 peptide cleavage – biochemical, VEID-R110 fluorescence, cherry-pick, dose response (AID 720632)
T1 sequence (P55212 whole entry): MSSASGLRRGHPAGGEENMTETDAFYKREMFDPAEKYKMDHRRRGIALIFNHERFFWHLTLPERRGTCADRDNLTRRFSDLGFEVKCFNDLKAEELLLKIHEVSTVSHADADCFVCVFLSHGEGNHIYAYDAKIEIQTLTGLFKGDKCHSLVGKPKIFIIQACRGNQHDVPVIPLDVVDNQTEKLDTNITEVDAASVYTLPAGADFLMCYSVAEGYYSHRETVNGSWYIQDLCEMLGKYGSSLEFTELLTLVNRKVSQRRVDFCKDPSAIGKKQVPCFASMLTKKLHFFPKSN

[8] = molecular target: Cyclin-dependent kinase 5/CDK5 activator 1 (Homo sapiens, UniProt Q00535); assay: blockade of human CDK5 activity – biochemical, cherry-picked samples, set 2, dose response (AID 504545)
Cyclin-dependent kinase 5/CDK5 activator 1, sequence (Q00535 whole entry): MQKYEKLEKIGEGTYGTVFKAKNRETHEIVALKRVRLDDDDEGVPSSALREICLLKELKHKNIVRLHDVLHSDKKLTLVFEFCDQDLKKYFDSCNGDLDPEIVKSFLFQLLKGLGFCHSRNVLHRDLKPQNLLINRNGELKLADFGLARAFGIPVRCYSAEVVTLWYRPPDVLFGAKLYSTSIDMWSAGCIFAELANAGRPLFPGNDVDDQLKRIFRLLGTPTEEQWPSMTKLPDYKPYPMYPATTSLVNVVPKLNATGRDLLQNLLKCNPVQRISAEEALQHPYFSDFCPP
Cyclin-dependent kinase 5/CDK5 activator 1, sequence (Q15078 whole entry, further chain): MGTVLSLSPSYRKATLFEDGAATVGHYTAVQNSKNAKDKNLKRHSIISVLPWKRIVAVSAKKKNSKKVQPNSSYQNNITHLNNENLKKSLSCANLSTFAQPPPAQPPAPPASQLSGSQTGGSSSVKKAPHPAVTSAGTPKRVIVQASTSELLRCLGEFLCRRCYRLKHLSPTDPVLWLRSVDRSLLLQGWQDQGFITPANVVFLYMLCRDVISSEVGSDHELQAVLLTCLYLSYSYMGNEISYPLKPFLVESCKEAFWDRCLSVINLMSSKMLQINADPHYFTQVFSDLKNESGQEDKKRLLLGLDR

[9] = molecular target: Prothrombin (Homo sapiens, UniProt P00734); assay: Thrombin 1536 HTS Dose Response Confirmation. [Related pubchem assays: 1046 (Thrombin 1536 HTS; hits were confirmed in this assay)]; type: functional
[10] = molecular target: T2, Oxysterols receptor LXR-beta (Homo sapiens, UniProt P55055); type: functional, cell-based;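 also: Cell-based luminescence dose-response assay of agonist activity at LXR, run as a confirmatory counterscreen to a daf-12 agonist screen; agonist potency from rising luciferase signal of a Gal4-LXR reporter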
T2 sequence (P55055 whole entry): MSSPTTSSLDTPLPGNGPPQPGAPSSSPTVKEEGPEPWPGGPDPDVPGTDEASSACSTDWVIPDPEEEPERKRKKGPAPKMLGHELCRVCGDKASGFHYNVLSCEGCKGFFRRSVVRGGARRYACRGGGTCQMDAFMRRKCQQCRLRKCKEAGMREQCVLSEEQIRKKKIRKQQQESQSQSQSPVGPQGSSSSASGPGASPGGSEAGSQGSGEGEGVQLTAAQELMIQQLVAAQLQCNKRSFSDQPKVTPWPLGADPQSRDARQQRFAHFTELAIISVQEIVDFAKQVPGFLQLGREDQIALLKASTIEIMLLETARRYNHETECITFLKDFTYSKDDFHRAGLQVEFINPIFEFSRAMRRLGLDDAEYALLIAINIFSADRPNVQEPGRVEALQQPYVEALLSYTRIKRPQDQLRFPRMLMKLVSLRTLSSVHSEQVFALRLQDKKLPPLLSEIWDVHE

[11] = molecular target: T2, Oxysterols receptor LXR-beta; assay: LXR agonists, Gal4 luciferase reporter, dose response, counter-screen for ssDAF-12 agonist project, cell-based, luminescence, HEK293, S. stercoralis campaign (AID 720737); type: functional; conditions: read-out: IC50 (the source's name)
[12] = cells; remark: listed apart in the source
[13] = Luminescence-based cell-based high throughput dose response assay to identify activators of the DAF-12 from the parasite S. stercoralis (ssDAF-12).; type: functional
[14] = OV-90 cell viability loss – plate reader, dry powder, SA8, PAX8 inhibitor project, dose response (AID 743149); type: functional, cell-based
[15] = inhibitors acting on PAX2 in cells – cell-based, plate reader, dry powder samples, selectivity assay for PAX8 inhibitor project, dose response (AID 743048); type: functional;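 also: HEK293 cells carrying a WT1 promoter luciferase reporter driven by expressed Pax2; potency is for inhibition of Pax2 driven reporter signal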
[16] = PAX8-dependent cell viability loss – plate reader, dry powder, dose response (AID 743049); type: functional, cell-based
[17] = COV362 cell viability loss – plate reader, dry powder, SA12, cytotoxicity control for PAX8 inhibitor project, dose response (AID 743144); type: functional, cell-based
[18] = molecular target: Paired box protein Pax-8 (Homo sapiens, UniProt Q06710); assay: PAX8 transcriptional activity inhibition in RMG-I – RMG-I cells, luciferase, cherry-pick, dose response (AID 687027); type: functional, cell-based;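 also: luciferase reporter driven by Pax8 target thyroperoxidase promoter measured by SteadyGlo luminescence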
Paired box protein Pax-8, sequence (Q06710 whole entry): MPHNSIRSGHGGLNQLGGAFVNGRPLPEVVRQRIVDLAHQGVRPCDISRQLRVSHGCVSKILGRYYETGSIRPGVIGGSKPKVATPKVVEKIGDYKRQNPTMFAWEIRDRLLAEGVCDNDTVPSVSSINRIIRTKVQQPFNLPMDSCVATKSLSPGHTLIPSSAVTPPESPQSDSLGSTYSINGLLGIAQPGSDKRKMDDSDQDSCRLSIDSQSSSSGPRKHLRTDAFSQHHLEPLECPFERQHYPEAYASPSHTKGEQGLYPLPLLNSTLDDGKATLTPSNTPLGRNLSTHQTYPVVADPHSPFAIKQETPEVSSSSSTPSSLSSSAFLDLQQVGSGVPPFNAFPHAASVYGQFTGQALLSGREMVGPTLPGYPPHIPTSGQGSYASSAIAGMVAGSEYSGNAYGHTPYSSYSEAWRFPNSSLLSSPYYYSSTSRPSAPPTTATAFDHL

[19] = PAX5 cellular inhibition readout – cell-based, plate reader, dry powder samples, selectivity assay for PAX8 inhibitor project, dose response (AID 743047); type: functional;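 also: HEK293 cells carrying a Pax5 driven CD19 promoter luciferase reporter; potency of inhibitors that lower reporter luminescence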

Which EC50 [1] does the source give for `C/C(CC1CC2=C(CC1(C)C)C(C)(C)CCC2)=N\NC(N)=S` (configuration not stated) here?
Its EC50 is 139 nM (active).

What about the EC50 [2] of the same compound?
Its EC50 is < 100 nM (active).

What about the IC50 [3] of the same compound?
The IC50 was > 66.6 µM (inactive).

What about the EC50 [4] of the same compound?
The EC50 was > 60 µM (not active).

With `CCOC(=O)c1ccc(NC(=O)C2CCCN(S(=O)(=O)c3ccc(F)cc3)C2)cc1` (configuration not stated) as the compound, how does the IC50 [5] read?
The IC50 was > 69.5 µM (inactive).

And the IC50 [6]?
The IC50 was > 7.72 µM (active).

Which AC50 [7] does the source give for `COc1ccc(CCN2CC(C(=O)NCCc3ccc(C)cc3)CC2=O)cc1OC` (configuration not stated) here?
The AC50 was 20.1 µM (active).

With `O=C(Cc1ccc(O)cc1)NCCN=C(S)NCc1ccccc1` as the compound, how does the AC50 [8] read?
The AC50 was 27.6 µM (active).

With `Nc1nc(CN2CCCCC2)cs1` as the compound, how does the IC50 [9] read?
The IC50 was > 50 µM (not active).

Which IC50 [9] does the source give for `COc1ccc(C2CC(c3ccccc3)=NN2C(=O)CN2CCN(Cc3ccccc3)CC2)cc1` (configuration not stated) here?
Its IC50 is > 50 µM (not active).

Which EC50 [10] does the source give for `COc1ccccc1-c1nc(-c2ccc(Br)o2)no1` here?
Its EC50 is > 67.5 µM (inactive).

What about the EC50 [11] of the same compound?
The EC50 was > 67.5 µM (inactive).

And the EC50 [12]?
The EC50 was > 67.5 µM (inactive).

What about the IC50 [13] of the same compound?
Its IC50 is > 67.5 µM (inactive).

With `O=C(Nc1ccc2c(c1)OCCO2)Nc1ccc2c(c1)OCO2` as the compound, how does the EC50 [11] read?
Its EC50 is > 67.6 µM (inactive).

What about the IC50 [13] of the same compound?
The IC50 was > 67.6 µM (inactive).

With `COc1cccc(C#Cc2ccc([C@H]3[C@@H](C#N)N(C(=O)c4ccccn4)[C@@H]3CO)cc2)c1` as the compound, how does the AC50 [14] read?
The AC50 was > 70 µM (inactive).

And the AC50 [15]?
Its AC50 is 14.1 µM (active).

What about the AC50 [16] of the same compound?
Its AC50 is 47.3 µM (active).

And the AC50 [17]?
The AC50 was 43.7 µM (active).

And the AC50 [18]?
Its AC50 is 15 µM (active).

What about the AC50 [19] of the same compound?
The AC50 was 15.2 µM (active).
